The text below walks through data of ChEMBL document CHEMBL1649523, “Prospective open-label study of the administration of two-percent voriconazole eye drops” (2009).

Assay type in all cases: functional
In assay [1] the test system is Fusarium solani. The assay can be described thus: Antifungal against Fusarium solani by microdilution technique. Background: In broth dilution the organism is exposed to a series of concentrations in liquid medium.
For assay [2], the system named is Aspergillus fumigatus. The assay can be described thus: Antifungal against Aspergillus fumigatus.
For assay [3], the system named is Talaromyces marneffei. The assay can be described thus: Antifungal against Penicillium marneffei.
The subject of assay [4] is Aspergillus flavus. Description: Antifungal against Aspergillus flavus.
The nature of assay [5]: Antifungal against Acremonium alabamense. The settings on record: Thielavia terrestris.
Assay [6] deals with Scedosporium apiospermum. The assay can be described thus: Antifungal against Scedosporium apiospermum.
A short description of assay [7]: Antifungal against Scedosporium.
A short description of assay [8]: Antifungal against Paecilomyces lilacinus. The note with it: Purpureocillium lilacinum.
Assay [9] relates to Curvularia. Description: Antifungal against Curvularia.
Assay [10] has as its system Fusarium sp. The assay can be described thus: Antifungal against Fusarium sp.
The subject of assay [11] is Candida tropicalis. Description: Antifungal against Candida tropicalis.
The subject of assay [12] is Cryptococcus neoformans. Description: Antifungal against Cryptococcus neoformans.
Assay [13] concerns Candida parapsilosis. Description: Antifungal against Candida parapsilosis. The settings on record: Lodderomyces parapsilosis.
Assay [14] can be described thus: Antifungal against Coccidioides immitis.
The test system of assay [15] is Candida albicans. Description: Antifungal against Candida albicans.
The subject of assay [16] is Blastomyces dermatitidis. Description: Antifungal against Blastomycoides dermatitidis.
Assay [17] relates to Histoplasma capsulatum. The assay can be described thus: Antifungal against Histoplasma capsulatum.

In brackets after ≈: the same amount, converted by molar mass.

A word on the MIC90: it is the lowest concentration that inhibits either 90% of growth or 90% of the strains tested, depending on the study. Read a high MIC90 as weaker potency. For the compound `C[C@@H](c1ncncc1F)[C@](O)(Cn1cncn1)c1ccc(F)cc1F` [VORICONAZOLE], the MIC90 in [1] amounted to 2 µg/mL (≈ 5.73 µM); in assay [2] it was 0.5 µg/mL (≈ 1.43 µM); in assay [3], 0.03 µg/mL (≈ 0.0859 µM); in assay [4], 0.5 µg/mL (≈ 1.43 µM); in assay [5], 0.25 µg/mL (≈ 0.716 µM); in assay [6], 0.5 µg/mL (≈ 1.43 µM). Moreover, the MIC90 in [7] is 0.5 µg/mL (≈ 1.43 µM); in assay [8], 0.5 µg/mL (≈ 1.43 µM); in assay [9] it was 0.06 µg/mL (≈ 0.172 µM); in assay [10] it was 0.25 µg/mL (≈ 0.716 µM); in [11], > 0.25 µg/mL; in assay [12], 0.06 µg/mL (≈ 0.172 µM). Further, the MIC90 in assay [13] amounted to 0.12 µg/mL (≈ 0.344 µM); in assay [14], 0.25 µg/mL (≈ 0.716 µM); in assay [15] it was 0.06 µg/mL (≈ 0.172 µM); in assay [16], 0.25 µg/mL (≈ 0.716 µM); in assay [17], 0.25 µg/mL (≈ 0.716 µM).
